Test results: ChEMBL document CHEMBL1138299, “Synthesis and antitumor activity of amine analogs of irofulven” (Bioorg Med Chem Lett, 2007)
pIC50: −log10 of the molar value.

Test: Antitumor activity in MV522 cells assessed as inhibition of DNA synthesis after 2 hrs
Assay type: functional, cell-based
Conditions: Homo sapiens, MV522, 2 h

SMILES	pIC50
CC1=C(C=O)C2=C(C)C3(CC3)[C@@](C)(O)C(=O)C2=C1	5.31
CC1=C(CO)C2=C(C)C3(CC3)[C@@](C)(O)C(=O)C2=C1 [IROFULVEN]	6.96
